Experiments:
[1] = Partition coefficient (logP); details: octanol/water
Salmonella typhimurium = assay: Mutagenic activity in an Ames test on Salmonella Typhimurium TA98; Activity is log of revertants/nmol; format: functional, Salmonella enterica subsp. enterica serovar Typhimurium; set-up: scale not given here

Structure (SMILES) | logP [1] | Activity (Salmonella typhimurium)
O=[N+]([O-])c1ccc2cccc3c2c1C=C3 | 3.36 | 1.77
O=[N+]([O-])c1ccc2c(c1)Cc1cc([N+](=O)[O-])ccc1-2 | 3.35 | 3.22
O=[N+]([O-])C1=CC2Nc3cc([N+](=O)[O-])ccc3NC2C=C1 (centres undefined) | 2.29 | 2.75
O=C1OCCN1/N=C/c1ccc([N+](=O)[O-])o1 [FURAZOLIDONE] |  | 2.24
Nc1cccc(-c2cccc([N+](=O)[O-])c2)c1 | 2.68 | -1.7
Nc1ccc([N+](=O)[O-])cc1[N+](=O)[O-] | 1.84 | -1.74
O=[N+]([O-])c1ccc(Cl)c(Cl)c1 | 3.12 | 
O=[N+]([O-])c1ccc2ccc3c4c(cc5ccc1c2c53)C=CC(O)C4O (centres undefined) | 3.01 | 2.8
O=[N+]([O-])c1nc2ccccc2[nH]1 | 1.59 | 0
O=[N+]([O-])c1ccc(-c2cccc([N+](=O)[O-])c2)cc1 | 3.52 | 0.23
O=Cc1ccccc1[N+](=O)[O-] [2-NITROBENZALDEHYDE] |  | -1.92
O=[N+]([O-])c1ccc(Cl)c(Cl)c1Cl | 3.61 | -2.94
O=[N+]([O-])c1cc2c3c(c1)CCc1cccc(c1-3)CC2 | 5.28 | 1.58
O=[N+]([O-])c1ccc2c(c1)Cc1cc(Br)ccc1-2 | 4.83 | 3.06
O=[N+]([O-])c1cccc(Cl)c1Cl | 3.05 | -1.51
O=[N+]([O-])c1cc2c3c(c([N+](=O)[O-])c([N+](=O)[O-])cc3c1)-c1ccccc1-2 | 4.18 | 3.16
O=[N+]([O-])c1cc2ccccc2c2ccccc12 | 4.23 | 2.25
O=[N+]([O-])c1ccc2c(c1)Cc1cccc([N+](=O)[O-])c1-2 | 3.71 | 3.2
COc1ccc2c(c1)Cc1cc([N+](=O)[O-])ccc1-2 | 3.95 | 2.79
O=[N+]([O-])c1cccc2cc[nH]c12 | 2.13 | 
O=[N+]([O-])c1ccc2ccc3c([N+](=O)[O-])ccc4ccc1c2c43 | 4.44 | 5.06
O=[N+]([O-])c1ccc(F)c([N+](=O)[O-])c1 | 1.49 | 1.2
O=[N+]([O-])c1cc2c3c(ccc4cc([N+](=O)[O-])cc(c43)CC2)c1 | 4.73 | 4.25
O=[N+]([O-])c1ccc2[nH]ccc2c1 | 2.13 | 0.57
Nc1ccccc1-c1cccc([N+](=O)[O-])c1 | 2.68 | -1.52
O=[N+]([O-])c1ccc2c3c([N+](=O)[O-])ccc4ccc5ccc6ccc1c2c6c5c43 | 6.07 | 4.33

Structure (SMILES) | logP [1] | Activity (Salmonella typhimurium)
O=[N+]([O-])c1cccc2ccccc12 | 3.19 | -0.61
O=[N+]([O-])c1ccc2c3c(c4cccc5ccc1c2c54)CCCC3 | 6.26 | 0.78
O=C(Nc1ccc2c(c1)Cc1cc([N+](=O)[O-])ccc1-2)C(F)(F)F | 4.23 | 2.81
O=[N+]([O-])c1ccc2c3c(cccc13)CC2 | 3.85 | 0.58
O=[N+]([O-])c1ccc2ccc3cccc4ccc1c2c34 [1-NITROPYRENE] | 4.69 | 2.78
COc1cc([N+](=O)[O-])c2ncccc2c1 | 1.87 | -1.21
O=[N+]([O-])c1cc2c3c(ccc([N+](=O)[O-])c3c1)-c1ccccc1-2 | 4.44 | 3.78
O=[N+]([O-])c1cc2ccc3cc([N+](=O)[O-])cc4ccc(c1)c2c34 | 4.44 | 
O=[N+]([O-])c1c2c(cc3ccccc13)C(O)C(O)C=C2 (centres undefined) | 3.4 | 
O=[N+]([O-])c1c2c(c3ccc4cccc5ccc1c3c45)CCCC2O (centres undefined) | 4.78 | 
O=[N+]([O-])c1cc2c3c(cccc3c1)-c1ccccc1-2 | 4.69 | 3.01
O=[N+]([O-])c1cccc2c1-c1cccc3cccc-2c13 | 4.69 | 1.87
O=C1NCCN1c1ncc([N+](=O)[O-])s1 [NIRIDAZOLE] | 0.95 | 2.59
O=[N+]([O-])C1=Cc2cccc3c2c1cc1cc2ccccc2cc13 | 5.07 | 0.92
CN1Cc2cccc([N+](=O)[O-])c2N1 | 1.77 | 0.23
O=C(/C=C/c1ccccc1)c1ccc([N+](=O)[O-])cc1 | 2.83 | -1.15
O=[N+]([O-])c1cc([N+](=O)[O-])c2ccc3cccc4ccc1c2c43 | 4.44 | 5.04
O=[N+]([O-])c1c(Cl)cc2c(c1Cl)Oc1cc(Cl)c(Cl)cc1O2 | 7.13 | -1.4
O=[N+]([O-])c1cc2c3c(ccc4cccc(c43)CC2)c1 | 4.99 | 3.27
O=[N+]([O-])c1ccc(Cl)cc1Cl | 3.09 | 
O=[N+]([O-])c1cc2cccc3ccc4cccc1c4c32 | 4.69 | 
O=[N+]([O-])c1ccccc1F | 1.69 | 
O=[N+]([O-])c1c2c(cc3c1ccc1ccccc13)C=CC(O)C2O (centres undefined) | 2.55 | 
Cc1ncc([N+](=O)[O-])n1CCO [METRONIDAZOLE] | -0.02 | 
O=[N+]([O-])c1ccc(Cl)cc1 | 2.39 | 
O=[N+]([O-])c1cccc2c3ccccc3c3ccccc3c12 | 5.41 | 

Structure (SMILES) | logP [1] | Activity (Salmonella typhimurium)
O=[N+]([O-])c1cccc(Cl)c1 | 2.41 | 
O=[N+]([O-])c1ccc2nc3ccccc3nc2c1 | 2.52 | 
O=[N+]([O-])c1cccc(F)c1 | 1.9 | 
O=[N+]([O-])c1ccc2c3ccccc3c3cccc4ccc1c2c43 | 5.87 | 
O=[N+]([O-])c1ccc2c3cccc4cccc(c5cccc1c52)c43 | 5.87 | 
Nc1ccc(-c2ccc([N+](=O)[O-])cc2)cc1 | 2.68 | 
O=[N+]([O-])c1ccc2ccc3cccc4c5ccccc5c1c2c34 | 5.87 | 
O=[N+]([O-])c1ccc2cccc3c2c1-c1ccccc1-3 | 4.69 | 
CN1CCc2cc([N+](=O)[O-])ccc21 | 2.86 | 
O=[N+]([O-])c1c2c(cc3ccccc13)C=CC(O)C2O (centres undefined) | 1.38 | 
O=C1CN(/N=C/c2ccc([N+](=O)[O-])o2)C(=O)N1 [NITROFURANTOIN] |  | 1.03
O=[N+]([O-])c1cccc2cccnc12 | 1.44 | 
O=[N+]([O-])c1ccc2c(c1)CCN2 | 2.07 | 
Cn1ccc2cccc([N+](=O)[O-])c21 | 2.5 | 
O=[N+]([O-])c1c2ccccc2cc2c3c(ccc12)C(O)C(O)C=C3 (centres undefined) | 2.55 | 
O=[N+]([O-])c1ccc(/C=C/c2ccccc2)cc1 | 4.18 | 
Cn1ccc2cc([N+](=O)[O-])ccc21 | 2.5 | 
O=Cc1ccc([N+](=O)[O-])cc1 | 1.56 | 
CC(=O)c1ccc([N+](=O)[O-])cc1 | 1.53 | 
O=[N+]([O-])c1cccc2[nH]ccc12 | 2.13 | 
O=[N+]([O-])c1c2c(c3ccc4cccc5ccc1c3c45)CCCC2 | 6.57 | 
O=[N+]([O-])c1c2cccc(O)c2cc2c1ccc1ccccc12 | 5.06 | 
O=C1c2cc([N+](=O)[O-])ccc2-c2ccc([N+](=O)[O-])cc21 | 2.84 | 
O=[N+]([O-])c1ccc2ccccc2c1 | 3.24 | 

Reference: ChEMBL document CHEMBL1125820, “Structure-activity relationship of mutagenic aromatic and heteroaromatic nitro compounds. Correlation with molecular orbital energies and hydrophobicity” (J Med Chem, 1991)
